Earlier results as cited in patent US20230070788A1, “METHOD FOR DYEING KERATIN MATERIAL, COMPRISING THE USE OF AN ORGANIC C1-C6 ALKOXY SILANE AND A COPOLYMER OF (METH) ACRYLIC ACID AND MALEIC ACID (ANHYDRIDE)” (Henkel AG & Co. KGaA, priority 2019, published 2023).

Settings: for solubility in water: 25° C.

| Molecule | solubility in water | solubility in water (in words) (water at 25° C.) |
| --- | --- | --- |
| Nc1cc(S(=O)(=O)[O-])cc2cc(S(=O)(=O)[O-])c(N=Nc3ccccc3)c(O)c12.[Na+].[Na+] [Acid Red 33, disodium salt of 5-amino-4-hydroxy-3-(phenylazo)-naphthalene-2,7-disulphonate] | 2.5 mg/mL |  |
| O=C([O-])C1=NN(c2ccc(S(=O)(=O)[O-])cc2)C(=O)C1N=Nc1ccc(S(=O)(=O)[O-])cc1.[Na+].[Na+].[Na+] (centres unmarked) [Acid Yellow 23, trisodium salt of 4,5-dihydro-5-oxo-1-(4-sulfophenyl)-4-((4-sulfophenyl)azo)-1H-pyrazole-3-carboxylic acid] |  | readily soluble |
| mixture of the sodium salts of mono- and disulfonic acids of 2-(2-quinolyl)-1H-indene-1,3(2H)-dione [Acid Yellow 3] | 20 mg/mL |  |
| O=S(=O)([O-])c1ccc(N=Nc2c(O)ccc3ccccc23)cc1.[Na+] [Acid Orange 7, sodium salt of 4-[(2-hydroxy-1-naphthyl)azo]benzenesulfonate] | more than 7 g/L |  |
| O=C([O-])c1c(Cl)c(Cl)c(Cl)c(Cl)c1-c1c2c(Br)cc(=O)c(Br)c-2oc2c(Br)c(O)cc(Br)c12.O=C([O-])c1c(Cl)c(Cl)c(Cl)c(Cl)c1-c1c2c(Br)cc(=O)c(Br)c-2oc2c(Br)c(O)cc(Br)c12.[Na+].[Na+] [Acid Red 92, disodium salt of 3,4,5,6-tetrachloro-2-(1,4,5,8-tetrabromo-6-hydroxy-3-oxoxanthen-9-yl)benzoic acid] | greater than 10 g/L |  |
